In ChEMBL document CHEMBL4373717, “Coumarin-containing hybrids and their anticancer activities” (Eur J Med Chem, 2019):
Values after ≈ are worked out from the molar mass of the structure shown. Values belong to the molecule of their own block, whether it stands above or below them.

Legend:
Assay type in all cases: functional, cell-based
[1] = test system: MDA-MB-231; assay: Cytotoxicity against human MDA-MB-231 cells assessed as reduction in cell viability after 24 hrs by MTT assay
[2] = test system: A549; assay: Cytotoxicity against human A549 cells assessed as reduction in cell viability after 24 hrs by MTT assay; settings: A549, 24 h
[3] = test system: 769-P; assay: Anticancer activity against human 769-P cells by MTT assay
[4] = test system: HepG2; assay: Anticancer activity against human HepG2 cells by MTT assay
[5] = test system: MDA-MB-231; assay: Anticancer activity against human MDA-MB-231 cells by MTT assay
[6] = test system: MCF7; assay: Cytotoxicity against human MCF7 cells assessed as reduction in cell viability after 48 hrs by MTT assay; settings: MCF7, 48 h
[7] = test system: MCF7; assay: Cytotoxicity against human MCF7 cells assessed as reduction in cell viability after 68 hrs by MTT assay; settings: MCF7, 68 h
[8] = test system: HeLa; assay: Cytotoxicity against human HeLa cells assessed as reduction in cell viability after 68 hrs by MTT assay
[9] = test system: A549; assay: Cytotoxicity against human A549 cells assessed as reduction in cell viability after 68 hrs by MTT assay; settings: A549, 68 h
[10] = test system: K562; assay: Cytotoxicity against human K562 cells assessed as reduction in cell viability after 68 hrs by MTT assay; settings: K562, 68 h
[11] = test system: HeLa; assay: Anticancer activity against human HeLa cells by MTT assay
[12] = test system: A549; assay: Anticancer activity against human A549 cells by MTT assay
[13] = test system: K562; assay: Anticancer activity against human K562 cells by MTT assay

Structure (SMILES): O=c1oc2ccccc2cc1-c1cc(-c2ccc(Br)cc2)nc(Cc2ccc(F)cc2)n1
IC50 ([1]; Homo sapiens, MDA-MB-231, 24 h): 2150 to 28600 nM
IC50 [2]: 2150 to 28600 nM

IC50 [4]: 383 to 13600 nM
IC50 [5]: 383 to 13600 nM
Structure (SMILES): O=c1ccc2ccc(OCCCCCCCCCCn3cc(COc4ccc5ccc(=O)oc5c4)nn3)cc2o1
IC50 [3]: 383 to 13600 nM

Structure (SMILES): Cc1cc(-c2cc3ccccc3oc2=O)n(-c2nc(-c3ccccc3)cs2)n1
IC50 [6]: 4030 to 31500 nM

Structure (SMILES): COc1ccc(OC)c(NC(=O)Nc2ccc(Cc3c(C)c4cc(C(C)(C)C)c(O)cc4oc3=O)cn2)c1
IC50 [7]: 1660 to 19400 nM
IC50 [8]: 1660 to 19400 nM
IC50 [9]: 1660 to 19400 nM
IC50 [10]: 1660 to 19400 nM

Structure (SMILES): O=c1oc2ccccc2cc1-c1cc(-c2ccc(Cl)cc2)nc(Cc2ccc(F)cc2)n1
IC50 ([1]; Homo sapiens, MDA-MB-231, 24 h): 2510 nM
IC50 [2]: 2510 nM

Structure (SMILES): CC(=O)c1ccc(NC(=O)Nc2ccc(Cc3c(C)c4cc(C(C)(C)C)c(O)cc4oc3=O)cn2)cc1
IC50 [7]: 1660 to 19400 nM
IC50 [8]: 1660 to 19400 nM
IC50 [9]: 1660 to 19400 nM
IC50 [10]: 1660 to 19400 nM

Structure (SMILES): Cc1ccccc1NC(=O)c1ccc(-n2cc(COc3cc(=O)oc4ccccc34)nn2)cc1
IC50 ([1]; mda-mb-231): 30 to 91600 nM

Structure (SMILES): COc1ccc(-c2csc(-n3nc(C)cc3-c3cc4ccccc4oc3=O)n2)cc1
IC50 [6]: 4030 to 31500 nM

Structure (SMILES): Cc1cc(-c2cc3ccccc3oc2=O)n(-c2nc(-c3ccc(Br)cc3)cs2)n1
IC50 [6]: 4030 to 31500 nM

Structure (SMILES): O=C(Nc1ccc(F)c(Cl)c1)c1ccc(-n2cc(COc3cc(=O)oc4ccccc34)nn2)cc1
IC50 ([1]; mda-mb-231): 30 to 91600 nM

IC50 [4]: 383 to 13600 nM
IC50 [5]: 383 to 13600 nM
Structure (SMILES): O=c1ccc2ccc(OCCCCn3cc(COc4ccc5ccc(=O)oc5c4)nn3)cc2o1
IC50 [3]: 383 to 13600 nM

Structure (SMILES): Cc1c(Cc2ccc(NC(=O)Nc3ccccc3)nc2)c(=O)oc2cc(O)c(C(C)(C)C)cc12
IC50 [7]: 1660 to 19400 nM
IC50 [8]: 1660 to 19400 nM
IC50 [9]: 1660 to 19400 nM
IC50 [10]: 1660 to 19400 nM

Structure (SMILES): Cc1cc(-c2cc3cc(Cl)ccc3oc2=O)n(-c2nc(-c3ccccc3)cs2)n1
IC50 [6]: 4030 to 31500 nM

IC50 [11]: 0.16 to 1.12 µg/mL (≈ 0.306 to 2.14 µM)
IC50 [12]: 0.16 to 1.12 µg/mL
IC50 [5]: 0.16 to 1.12 µg/mL
IC50 [13]: 0.16 to 1.12 µg/mL (≈ 0.306 to 2.14 µM)
Structure (SMILES): COc1ccc(-n2nc(C)n(-n3c(-c4cc5ccccc5oc4=O)cs/c3=N\c3ccccc3)c2=O)cc1

Structure (SMILES): COc1ccc(NC(=O)c2ccc(-n3cc(COc4cc(=O)oc5ccccc45)nn3)cc2)cc1
IC50 ([1]; mda-mb-231): 30 to 91600 nM

IC50 [11]: 0.16 to 1.12 µg/mL (≈ 0.315 to 2.21 µM)
IC50 [12]: 0.16 to 1.12 µg/mL
IC50 [5]: 0.16 to 1.12 µg/mL
IC50 [13]: 0.16 to 1.12 µg/mL (≈ 0.315 to 2.21 µM)
Structure (SMILES): Cc1ccc(-n2nc(C)n(-n3c(-c4cc5ccccc5oc4=O)cs/c3=N\c3ccccc3)c2=O)cc1

IC50 [4]: 383 to 13600 nM
IC50 [5]: 383 to 13600 nM
Structure (SMILES): Cc1cc(=O)oc2cc(OCc3cn(CCOc4ccc5ccc(=O)oc5c4)nn3)ccc12
IC50 [3]: 383 to 13600 nM

IC50 [4]: 383 to 13600 nM
IC50 [5]: 383 to 13600 nM
Structure (SMILES): Cc1cc(=O)oc2cc(OCc3cn(CCCCCCCCCCCCOc4ccc5ccc(=O)oc5c4)nn3)ccc12
IC50 [3]: 383 to 13600 nM

Structure (SMILES): Cc1cc(-c2cc3cc(Br)ccc3oc2=O)n(-c2nc(-c3ccc(Br)cc3)cs2)n1
IC50 [6]: 4030 to 31500 nM

IC50 [4]: 383 to 13600 nM
IC50 [5]: 383 to 13600 nM
Structure (SMILES): O=c1ccc2ccc(OCCCCCCCn3cc(COc4ccc5ccc(=O)oc5c4)nn3)cc2o1
IC50 [3]: 383 to 13600 nM

IC50 [4]: 383 to 13600 nM
IC50 [5]: 383 to 13600 nM
Structure (SMILES): O=c1ccc2ccc(OCCCCCCCCCn3cc(COc4ccc5ccc(=O)oc5c4)nn3)cc2o1
IC50 [3]: 383 to 13600 nM

IC50 [4]: 383 to 13600 nM
IC50 [5]: 383 to 13600 nM
Structure (SMILES): O=c1ccc2ccc(OCCCCCCCCCCCCn3cc(COc4ccc5ccc(=O)oc5c4)nn3)cc2o1
IC50 [3]: 383 to 13600 nM

IC50 [4]: 383 to 13600 nM
IC50 [5]: 383 to 13600 nM
Structure (SMILES): Cc1cc(=O)oc2cc(OCc3cn(CCCCCCCOc4ccc5ccc(=O)oc5c4)nn3)ccc12
IC50 [3]: 383 to 13600 nM

Structure (SMILES): O=C(Nc1ccccc1Br)c1ccc(-n2cc(COc3cc(=O)oc4ccccc34)nn2)cc1
IC50 ([1]; mda-mb-231): 30 to 91600 nM

Structure (SMILES): COc1ccc(-c2csc(-n3nc(C)cc3-c3cc4cc(Br)ccc4oc3=O)n2)cc1
IC50 [6]: 4030 to 31500 nM

Structure (SMILES): Cc1ccc(NC(=O)c2ccc(-n3cc(COc4cc(=O)oc5ccccc45)nn3)cc2)c(C)c1
IC50 ([1]; mda-mb-231): 30 to 91600 nM

IC50 [12]: 420 to 430 nM
Structure (SMILES): Cc1ccc2c(C3C4=C(CCCC4=O)OC3c3cc(=O)oc4ccc(C)cc34)cc(=O)oc2c1 (stereo unspecified)

Structure (SMILES): O=C(Nc1ccc(Br)cc1)c1ccc(-n2cc(COc3cc(=O)oc4ccccc34)nn2)cc1
IC50 ([1]; mda-mb-231): 30 to 91600 nM

Structure (SMILES): COc1cccc(-c2cc(-c3cc4ccccc4oc3=O)nc(Cc3ccc(F)cc3)n2)c1
IC50 ([1]; Homo sapiens, MDA-MB-231, 24 h): 2150 to 28600 nM
IC50 [2]: 2150 to 28600 nM

Structure (SMILES): Cc1cc(-c2cc3cc(Cl)ccc3oc2=O)n(-c2nc(-c3ccc(Br)cc3)cs2)n1
IC50 [6]: 4030 to 31500 nM

Structure (SMILES): Cc1c(Cl)cccc1NC(=O)c1ccc(-n2cc(COc3cc(=O)oc4ccccc34)nn2)cc1
IC50 ([1]; mda-mb-231): 30 to 91600 nM

IC50 [12]: 420 to 430 nM
Structure (SMILES): Cc1ccc2oc(=O)cc(C3OC4=C(C(=O)CCC4)C3c3cc(=O)oc4ccc(C)cc34)c2c1 (stereo unspecified)

IC50 [12]: 350 nM
Structure (SMILES): CC(=O)O[C@H]1C(=O)[C@@]2(C)[C@H]([C@H](OC(=O)c3ccccc3)[C@]3(O)C[C@H](OC(=O)[C@H](O)[C@@H](NC(=O)c4ccccc4)c4ccccc4)C(C)=C1C3(C)C)[C@]1(OC(C)=O)CO[C@@H]1C[C@@H]2O [PACLITAXEL]
IC50 [7]: 3.3 to 14 nM
IC50 [8]: 3.3 to 14 nM
IC50 [9]: 3.3 to 14 nM
IC50 [10]: 3.3 to 14 nM
